Target: T1, APOL1 (Homo sapiens, UniProt O14791)
T1 sequence (O14791 1-398 S342G/I384M): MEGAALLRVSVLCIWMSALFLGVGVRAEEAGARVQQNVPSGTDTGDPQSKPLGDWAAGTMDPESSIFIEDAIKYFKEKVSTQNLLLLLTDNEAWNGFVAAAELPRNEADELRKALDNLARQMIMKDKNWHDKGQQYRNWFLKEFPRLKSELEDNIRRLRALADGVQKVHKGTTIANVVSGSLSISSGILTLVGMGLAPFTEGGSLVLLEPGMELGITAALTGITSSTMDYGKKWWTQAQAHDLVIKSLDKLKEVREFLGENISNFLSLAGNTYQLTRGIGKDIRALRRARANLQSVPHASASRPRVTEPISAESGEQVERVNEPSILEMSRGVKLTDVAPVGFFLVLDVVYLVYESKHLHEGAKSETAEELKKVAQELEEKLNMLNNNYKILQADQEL
Assay: MultiTox-Fluor Multiplex Cytotoxicity Assay in tet-inducible APOL1 T-REx-HEK293 cells (cell rescue, ratio of dead to live cells)
Type: cell-based
Details: tet-inducible transgenic APOL1 T-REx-HEK293 cell lines, 50 ng/mL tet, 24 hours; read-out: IP50 (i.e., IC50 for cell proliferation)
How it was run: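 T-REx-HEK293 cells with tet-inducible APOL1 were treated with compound (10 μM top, 10-point 3-fold dilution, duplicate) plus 50 ng/mL tetracycline for 24 h at 37° C, in DMEM with 2% tet-free FBS. MultiTox-Fluor protease signals gave a dead/live ratio, normalized to no tet (100% viability) and tet alone (0%).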

Row | SMILES | IC50 [µM]
1 | CCc1cc2c(s1)CCO[C@@]21CCN(Cc2cn([C@H]3C[C@@H](OC)C3)nn2)[C@@H](C)C1 [Compound 145] | < 0.1
2 | CCc1cc2c(s1)CCO[C@@]21CCN(Cc2cn(CC3(O)COC3)nn2)[C@@H](C)C1 [Compound 146] | < 0.1
3 | CCc1cc2c(s1)CCO[C@@]21CCN(Cc2cn(C3(CO)COC3)nn2)[C@@H](C)C1 [Compound 147] | 0.5 to 1
4 | CCc1cc2c(s1)CCOC21CCN(Cc2cn(C(C)CC(N)=O)nn2)C(C)C1 (stereo not drawn) [Compound 148] | 0.1 to 0.5
5 | CCc1cc2c(s1)CCO[C@@]21CCN(Cc2cn(C(C)(C)C(N)=O)nn2)[C@@H](C)C1 [Compound 149] | 0.5 to 1
6 | CCc1cc2c(s1)CCO[C@@]21CCN(Cc2cn(CC3(CO)CC3)nn2)[C@@H](C)C1 [Compound 150] | 0.1 to 0.5
7 | CCc1cc2c(s1)CCO[C@@]21CCN(Cc2cn([C@H]3C[C@H](O)C3)nn2)[C@@H](C)C1 [Compound 151] | < 0.1
8 | CCc1cc2c(s1)CCO[C@@]21CCN(Cc2cn(C3CC(O)C3)nn2)[C@@H](C)C1 (stereo partly drawn) [Compound 152] | 0.1 to 0.5
9 | CCc1cc2c(s1)CCO[C@@]21CCN(Cc2cn(CCCO)nn2)[C@@H](C)C1 [Compound 153] | < 0.1
10 | CCc1cc2c(s1)CCO[C@@]21CCN(Cc2cn(CCO)nn2)[C@@H](C)C1 [Compound 154] | < 0.1
11 | CCc1cc2c(s1)CCO[C@@]21CCN(Cc2cn(CC3(S(C)(=O)=O)CCOCC3)nn2)[C@@H](C)C1 [Compound 155] | < 0.1
12 | CCc1cc2c(s1)CCO[C@@]21CCN(Cc2cn(CC3(S(C)(=O)=O)CC3)nn2)[C@@H](C)C1 [Compound 156] | < 0.1
13 | CCc1cc2c(s1)CCO[C@@]21CCN(Cc2cn(CC3(S(C)(=O)=O)CCCC3)nn2)[C@@H](C)C1 [Compound 157] | < 0.1
14 | CCc1cc2c(s1)CCO[C@@]21CCN(Cc2cn(CC3CCCCS3(=O)=O)nn2)[C@@H](C)C1 (stereo partly drawn) [Compound 158] | < 0.1
15 | CCc1cc2c(s1)CCO[C@@]21CCN(Cc2cn(CCS(=O)(=O)C(C)(C)C)nn2)[C@@H](C)C1 [Compound 159] | 0.1 to 0.5
16 | CCc1cc2c(s1)CCO[C@@]21CCN(Cc2cn(CCS(=O)(=O)C(C)C)nn2)[C@@H](C)C1 [Compound 160] | < 0.1
17 | CCc1cc2c(s1)CCO[C@@]21CCN(Cc2cn(CC3CCCS3(=O)=O)nn2)[C@@H](C)C1 (stereo partly drawn) [Compound 161] | < 0.1
18 | CCc1cc2c(s1)CCO[C@@]21CCN(Cc2cn(C3CN(S(C)(=O)=O)C3)nn2)[C@@H](C)C1 [Compound 162] | < 0.1
19 | CCc1cc2c(s1)CCO[C@@]21CCN(Cc2cn(C(C)c3nncn3CCOC)nn2)[C@@H](C)C1 (stereo partly drawn) [Compound 163] | 0.5 to 1
20 | CCc1cc2c(s1)CCO[C@@]21CCN(Cc2cn(C(C)(C)C(=O)N3CCOCC3)nn2)[C@@H](C)C1 [Compound 164] | 0.5 to 1

Row | SMILES | IC50 [µM]
21 | CCc1cc2c(s1)CCO[C@@]21CCN(Cc2cn(Cc3nc(C)no3)nn2)[C@@H](C)C1 [Compound 165] | < 0.1
22 | CCc1cc2c(s1)CCO[C@@]21CCN(Cc2cn(C3C[C@@H](CO)NC3=O)nn2)[C@@H](C)C1 (stereo partly drawn) [Compound 166] | 0.5 to 1
23 | CCc1cc2c(s1)CCO[C@@]21CCN(Cc2cn(Cc3cnn(C)n3)nn2)[C@@H](C)C1 [Compound 167] | < 0.1
24 | CCc1cc2c(s1)CCO[C@@]21CCN(Cc2cn(C(C)(C)CS(C)(=O)=O)nn2)[C@@H](C)C1 [Compound 168] | 0.5 to 1
25 | CCc1cc2c(s1)CCO[C@@]21CCN(Cc2cn(CC(O)(CC)CCCO)nn2)[C@@H](C)C1 (stereo partly drawn) [Compound 169] | < 0.1
26 | CCc1cc2c(s1)CCO[C@@]21CCN(Cc2cn(C3(CO)CCOC3)nn2)[C@@H](C)C1 (stereo partly drawn) [Compound 170] | 0.5 to 1
27 | CCc1cc2c(s1)CCO[C@@]21CCN(Cc2cn(CC3CN(C(C)=O)CCO3)nn2)[C@@H](C)C1 (stereo partly drawn) [Compound 171] | 0.1 to 0.5
28 | CCc1cc2c(s1)CCO[C@@]21CCN(Cc2cn(C(CC)C(=O)N3CCOCC3)nn2)[C@@H](C)C1 (stereo partly drawn) [Compound 172] | 0.1 to 0.5
29 | CCc1cc2c(s1)CCO[C@@]21CCN(Cc2cn(CCN3C(=O)CCC3=O)nn2)[C@@H](C)C1 [Compound 173] | 0.1 to 0.5
30 | CCc1cc2c(s1)CCO[C@@]21CCN(Cc2cn(CC3CN(C)C(=O)CO3)nn2)[C@@H](C)C1 (stereo partly drawn) [Compound 174] | 0.1 to 0.5
31 | CCc1cc2c(s1)CCO[C@@]21CCN(Cc2cn(CCN3CCS(=O)(=O)CC3)nn2)[C@@H](C)C1 [Compound 175] | 0.5 to 1
32 | CCc1cc2c(s1)CCO[C@@]21CCN(Cc2cn(Cc3nnc(C)o3)nn2)[C@@H](C)C1 [Compound 176] | 0.1 to 0.5
33 | CCc1cc2c(s1)CCO[C@@]21CCN(Cc2cn(C(C)(CO)CO)nn2)[C@@H](C)C1 [Compound 177] | 0.5 to 1
34 | CCc1cc2c(s1)CCO[C@@]21CCN(Cc2cn(CCOCCO)nn2)[C@@H](C)C1 [Compound 178] | 0.1 to 0.5
35 | CCc1cc2c(s1)CCO[C@@]21CCN(Cc2cn(Cc3cn(C)nn3)nn2)[C@@H](C)C1 [Compound 179] | < 0.1
36 | CCc1cc2c(s1)CCO[C@@]21CCN(Cc2cn(C3CC(=O)N(CCOC)C3)nn2)[C@@H](C)C1 (stereo partly drawn) [Compound 180] | < 0.1
37 | CCc1cc2c(s1)CCO[C@@]21CCN(Cc2cn(CC(N)=O)nn2)[C@@H](C)C1 [Compound 181] | 0.1 to 0.5
38 | CCc1cc2c(s1)CCO[C@@]21CCN(Cc2cn(CCN(CCO)CCO)nn2)[C@@H](C)C1 [Compound 182] | 0.1 to 0.5
39 | CCc1cc2c(s1)CCO[C@@]21CCN(Cc2cn(CCCS(C)(=O)=O)nn2)[C@@H](C)C1 [Compound 183] | < 0.1
40 | CCc1cc2c(s1)CCO[C@@]21CCN(Cc2cn(Cc3nc(COC)no3)nn2)[C@@H](C)C1 [Compound 184] | < 0.1

Row | SMILES | IC50 [µM]
41 | CCc1cc2c(s1)CCO[C@@]21CCN(Cc2cn(CCOc3nonc3C)nn2)[C@@H](C)C1 [Compound 185] | < 0.1
42 | CCc1cc2c(s1)CCO[C@@]21CCN(Cc2cn(C(C)c3nnc4n3CCC4)nn2)[C@@H](C)C1 (stereo partly drawn) [Compound 186] | 0.1 to 0.5
43 | CCc1cc2c(s1)CCO[C@@]21CCN(Cc2cn(CC3CCCN(S(C)(=O)=O)C3)nn2)[C@@H](C)C1 (stereo partly drawn) [Compound 187] | 0.1 to 0.5
44 | CCc1cc2c(s1)CCO[C@@]21CCN(Cc2cn(CC(O)c3c(C)nn(C)c3C)nn2)[C@@H](C)C1 (stereo partly drawn) [Compound 189] | < 0.1
45 | CCc1cc2c(s1)CCO[C@@]21CCN(Cc2cn(CC3(O)CCOCC3)nn2)[C@@H](C)C1 [Compound 190] | < 0.1
46 | CCc1cc2c(s1)CCO[C@@]21CCN(Cc2cn(CC(O)CN3CCOCC3)nn2)[C@@H](C)C1 (stereo partly drawn) [Compound 191] | < 0.1
47 | CCc1cc2c(s1)CCO[C@@]21CCN(Cc2cn(C(C)(C)CCS(C)(=O)=O)nn2)[C@@H](C)C1 [Compound 192] | 0.5 to 1
48 | CCc1cc2c(s1)CCO[C@@]21CCN(Cc2cn(C(CO)[C@H](C)O)nn2)[C@@H](C)C1 (stereo partly drawn) [Compound 193] | 0.5 to 1
49 | CCc1cc2c(s1)CCO[C@@]21CCN(Cc2cn(CCN3CCCC3=O)nn2)[C@@H](C)C1 [Compound 194] | 0.5 to 1
50 | CCc1cc2c(s1)CCO[C@@]21CCN(Cc2cn(CCOCCOCCO)nn2)[C@@H](C)C1 [Compound 195] | 0.1 to 0.5
51 | CCc1cc2c(s1)CCO[C@@]21CCN(Cc2cn(C3C[C@H](CO)NC3=O)nn2)[C@@H](C)C1 (stereo partly drawn) [Compound 196] | 0.1 to 0.5
52 | CCc1cc2c(s1)CCO[C@@]21CCN(Cc2cn(CCOCCOCCOCCO)nn2)[C@@H](C)C1 [Compound 197] | 0.1 to 0.5
53 | CCc1cc2c(s1)CCO[C@@]21CCN(Cc2cnc(Cl)nc2)[C@@H](C)C1 [Compound 198, (2′S,4R)-1′-[(2-chloropyrimidin-5-yl)methyl]-2-ethyl-2′-methyl-spiro[6,7-dihydrothieno[3,2-c]pyran-4,4′-piperidine]] | 0.1 to 0.5
54 | CCc1cc2c(s1)CCO[C@@]21CCN(Cc2ccc(Cl)nc2)[C@@H](C)C1 [Compound 199, (2′S,4R)-1′-[(6-chloro-3-pyridyl)methyl]-2-ethyl-2′-methyl-spiro[6,7-dihydrothieno[3,2-c]pyran-4,4′-piperidine]] | < 0.1
55 | CCc1cc2c(s1)CCO[C@@]21CCN(Cc2cnc(N[C@@H]3C=C[C@H](CO)C3)nc2)[C@@H](C)C1 [Compound 200, [(1R,4S)-4-[[5-[[(2′S,4R)-2-ethyl-2′-methyl-spiro[6,7-dihydrothieno[3,2-c]pyran-4,4′-piperidine]-1′-yl]methyl]pyrimidin-2-yl]amino]cyclopent-2-en-1-yl]methanol] | < 0.1
56 | CCc1cc2c(s1)CCO[C@@]21CCN(Cc2cnc(NC(C)(C)CO)nc2)[C@@H](C)C1 [Compound 201, 2-[[5-[[(2′S,4R)-2-ethyl-2′-methyl-spiro[6,7-dihydrothieno[3,2-c]pyran-4,4′-piperidine]-1′-yl]methyl]pyrimidin-2-yl]amino]-2-methyl-propan-1-ol] | < 0.1
57 | CCc1cc2c(s1)CCO[C@@]21CCN(Cc2ccc(N[C@@H]3C=C[C@H](CO)C3)nc2)[C@@H](C)C1 [Compound 202] | < 0.1
58 | CCc1cc2c(s1)CCO[C@@]21CCN(Cc2cnc(N[C@H]3COC[C@@H]3O)nc2)[C@@H](C)C1 [Compound 203] | < 0.1
59 | CCc1cc2c(s1)CCO[C@@]21CCN(Cc2cnc(N[C@H]3CC[C@H](O)C3)nc2)[C@@H](C)C1 [Compound 204] | < 0.1
60 | CCc1cc2c(s1)CCO[C@@]21CCN(Cc2ccc(N[C@H]3CC[C@H](O)C3)nc2)[C@@H](C)C1 [Compound 205] | < 0.1
